# Experiments:
# barnyardgrass [1] = experiment: Test B pre-/postemergence herbicide test; assay type: in vivo, Echinochloa crus-galli; conditions: for Plant response rating, Barnyardgrass: preemergence; for Barnyardgrass plant response rating: postemergence, visual rating, scale 0 (no effect) to 100 (complete control)
# How it was run: (§1)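 Evaluation is visual, comparing treated with control plants on a scale where 0 means no effect and 100 means full control. Treatments were preemergence, or postemergence on seedlings 2–18 cm tall, and held 13–15 days in the greenhouse.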
# Surinam grass = experiment: Test B pre-/postemergence herbicide test; assay type: in vivo, Urochloa decumbens; conditions: for Plant response rating, Surinam Grass: preemergence; for Surinam Grass plant response rating: postemergence, visual rating, scale 0 (no effect) to 100 (complete control)
# How it was run: (§2)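 Pre: seeds sown, then sprayed. Post: 1–4-leaf plants (2–18 cm) sprayed at the same time. Paddy: flooded, treated at 2-leaf stage. Formulation: non-phytotoxic solvent with surfactant. Greenhouse 13–15 days; visual 0–100 score relative to controls.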
# cocklebur = experiment: Test B pre-/postemergence herbicide test; assay type: in vivo, Xanthium strumarium; conditions: for Plant response rating, Cocklebur: preemergence; for Cocklebur plant response rating: postemergence, visual rating, scale 0 (no effect) to 100 (complete control)
# How it was run: as §1
# corn = experiment: Test B pre-/postemergence herbicide test; assay type: in vivo, Zea mays; conditions: for Plant response rating, Corn: preemergence; for Corn plant response rating: postemergence, visual rating, scale 0 (no effect) to 100 (complete control)
# How it was run: as §2
# large crabgrass = experiment: Test B pre-/postemergence herbicide test; assay type: in vivo, Digitaria sanguinalis; conditions: for Plant response rating, Crabgrass, Large: preemergence; for Crabgrass, Large plant response rating: postemergence, visual rating, scale 0 (no effect) to 100 (complete control)
# How it was run: as §2
# giant foxtail = experiment: Test B pre-/postemergence herbicide test; assay type: in vivo, Setaria faberi; conditions: for Plant response rating, Foxtail, Giant: preemergence; for Foxtail, Giant plant response rating: postemergence, visual rating, scale 0 (no effect) to 100 (complete control)
# How it was run: as §2
# lambsquarters = experiment: Test B pre-/postemergence herbicide test; assay type: in vivo, Chenopodium album; conditions: for Plant response rating, Lambsquarters: preemergence; for Lambsquarters plant response rating: postemergence, visual rating, scale 0 (no effect) to 100 (complete control)
# How it was run: as §2
# morningglory = experiment: Test B pre-/postemergence herbicide test; assay type: in vivo, Ipomoea coccinea; conditions: for Plant response rating, Morningglory: preemergence; for Morningglory plant response rating: postemergence, visual rating, scale 0 (no effect) to 100 (complete control)
# How it was run: as §1
# pigweed = experiment: Test B pre-/postemergence herbicide test; assay type: in vivo, Amaranthus retroflexus; conditions: for Plant response rating, Pigweed: preemergence; for Pigweed plant response rating: postemergence, visual rating, scale 0 (no effect) to 100 (complete control)
# How it was run: as §2
# rice [2] = experiment: Test B pre-/postemergence herbicide test; assay type: in vivo, Oryza sativa; conditions: 500 g ai/ha; visual rating 0-100, 0 no effect, 100 complete control; preemergence
# How it was run: as §2
# velvetleaf = experiment: Test B pre-/postemergence herbicide test; assay type: in vivo, Abutilon theophrasti; conditions: for Plant response rating, Velvetleaf: preemergence; for Velvetleaf plant response rating: postemergence, visual rating, scale 0 (no effect) to 100 (complete control)
# How it was run: as §2
# rice [3] = experiment: Test B flooded paddy test; assay type: in vivo, Oryza sativa; conditions: 1000 g ai/ha, visual rating, scale 0 to 100 (0 no effect, 100 complete control), 13 to 15 days
# How it was run: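 Plants grow to 1- to 4-leaf stage (2–18 cm) for postemergence spraying, or to 2-leaf stage for the paddy test. Formulated compound is applied. Greenhouse holding lasts 13–15 days. Response is scored visually relative to controls, 0 no effect to 100 complete control; a dash means no result.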
# [4] = test system: small flower umbrella sedge; experiment: Test B flooded paddy test; assay type: in vivo, Cyperus difformis; conditions: 1000 g ai/ha, visual rating, scale 0 to 100 (0 no effect, 100 complete control), 13 to 15 days
# How it was run: (§3)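 Each value is a visual 0–100 response rating taken against controls 13 to 15 days after treatment in the greenhouse. Plants received formulated chemical postemergence at the 1- to 4-leaf stage or, in flooded paddy, at the 2-leaf stage.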
# ducksalad [5] = experiment: Test B flooded paddy test; assay type: in vivo, Heteranthera limosa; conditions: 1000 g ai/ha, visual rating, scale 0 to 100 (0 no effect, 100 complete control), 13 to 15 days
# How it was run: as §3
# barnyardgrass [6] = experiment: Test B flooded paddy test; assay type: in vivo, Echinochloa crus-galli; conditions: 1000 g ai/ha, visual rating, scale 0 to 100 (0 no effect, 100 complete control), 13 to 15 days
# How it was run: as §3
# rice [7] = experiment: Test C flooded paddy test; assay type: in vivo, Oryza sativa
# How it was run: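 Plants were grown to the 1- to 4-leaf stage (2–18 cm) and then treated postemergence, or grown to the 2-leaf stage for the flooded paddy test. They were held in a greenhouse for 12 to 14 days and then scored by eye against controls, where 0 is no effect and 100 is complete control.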
# [8] = test system: smallflower umbrella sedge; experiment: Test C flooded paddy test; assay type: in vivo, Cyperus difformis
# ducksalad [9] = experiment: Test C flooded paddy test; assay type: in vivo, Heteranthera limosa
# barnyardgrass [10] = experiment: Test C flooded paddy test; assay type: in vivo, Echinochloa crus-galli
# How it was run: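 Ratings (0 = no effect, 100 = complete control) come from visual comparison with untreated plants after 12 to 14 days in the greenhouse. Treatment was postemergence at the 1- to 4-leaf stage (2–18 cm), or at the 2-leaf stage for the flooded paddy barnyardgrass.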
# [11] = 500 g ai/ha, visual rating 0-100, 0 no effect, 100 complete control
# [12] = 125 g ai/ha, 0 to 100 scale, 0 is no effect, 100 is complete control
# [13] = 62 g ai/ha, scale 0 to 100 (0 no effect, 100 complete control)
# [14] = 125 g ai/ha, scale 0 to 100 (0 no effect, 100 complete control)
# [15] = 250 g ai/ha, scale of 0 to 100, 0 is no effect, 100 is complete control
# [16] = 500 g ai/ha, visual rating after 12 to 14 days, scale 0 to 100 (0 no effect, 100 complete control)
smiles,measurement,setting,value
C=CCN(C)C(=O)c1ccnc(NC(=O)c2cc(C(C)(C)C)nn2CC)c1 [Compound 159],"Plant response rating, Barnyardgrass",barnyardgrass [1]; [11],90
same,Barnyardgrass plant response rating,barnyardgrass [1]; 125 g ai/ha,0
same,Barnyardgrass plant response rating,barnyardgrass [1]; 500 g ai/ha,0
same,"Plant response rating, Barnyardgrass",barnyardgrass [1]; [12],70
same,"Plant response rating, Surinam Grass",Surinam grass; [11],70
same,Surinam Grass plant response rating,Surinam grass; 125 g ai/ha,0
same,Surinam Grass plant response rating,Surinam grass; 500 g ai/ha,20
same,"Plant response rating, Surinam Grass",Surinam grass; [12],60
same,"Plant response rating, Cocklebur",cocklebur; [11],100
same,Cocklebur plant response rating,cocklebur; 125 g ai/ha,80
same,Cocklebur plant response rating,cocklebur; 500 g ai/ha,80
same,"Plant response rating, Cocklebur",cocklebur; [12],90
same,"Plant response rating, Corn",corn; [11],0
same,Corn plant response rating,corn; 125 g ai/ha,0
same,Corn plant response rating,corn; 500 g ai/ha,0
same,"Plant response rating, Corn",corn; [12],0
same,"Plant response rating, Crabgrass, Large",large crabgrass; [11],70
same,"Crabgrass, Large plant response rating",large crabgrass; 125 g ai/ha,0
same,"Crabgrass, Large plant response rating",large crabgrass; 500 g ai/ha,0
same,"Plant response rating, Crabgrass, Large",large crabgrass; [12],40
same,"Plant response rating, Foxtail, Giant",giant foxtail; [11],60
same,"Foxtail, Giant plant response rating",giant foxtail; 125 g ai/ha,40
same,"Foxtail, Giant plant response rating",giant foxtail; 500 g ai/ha,50
same,"Plant response rating, Foxtail, Giant",giant foxtail; [12],50
same,"Plant response rating, Lambsquarters",lambsquarters; [11],100
same,Lambsquarters plant response rating,lambsquarters; 125 g ai/ha,90
same,Lambsquarters plant response rating,lambsquarters; 500 g ai/ha,90
same,"Plant response rating, Lambsquarters",lambsquarters; [12],100
same,"Plant response rating, Morningglory",morningglory; [11],40
same,Morningglory plant response rating,morningglory; 125 g ai/ha,10
same,Morningglory plant response rating,morningglory; 500 g ai/ha,10
same,"Plant response rating, Morningglory",morningglory; [12],30
same,"Plant response rating, Pigweed",pigweed; [11],100
same,Pigweed plant response rating,pigweed; 125 g ai/ha,80
same,Pigweed plant response rating,pigweed; 500 g ai/ha,80
same,"Plant response rating, Pigweed",pigweed; [12],100
same,"Plant response rating, Rice",rice [2],70
same,"Plant response rating, Velvetleaf",velvetleaf; [11],90
same,Velvetleaf plant response rating,velvetleaf; 125 g ai/ha,20
same,Velvetleaf plant response rating,velvetleaf; 500 g ai/ha,70
same,"Plant response rating, Velvetleaf",velvetleaf; [12],80
same,Rice plant response rating,rice [3],60
same,"Sedge, Umbrella plant response rating",[4],70
same,Ducksalad plant response rating,ducksalad [5],90
same,Barnyardgrass plant response rating,barnyardgrass [6],80
same,Rice plant response rating,rice [7]; [13],60
same,Rice plant response rating,rice [7]; [14],60
same,Rice plant response rating,rice [7]; [15],80
same,"Plant response rating, Rice",rice [7]; [16],90
same,"Sedge, Umbrella plant response rating",[8]; [13],10
same,"Sedge, Umbrella plant response rating",[8]; [14],40
same,"Sedge, Umbrella plant response rating",[8]; [15],60
same,"Plant response rating, Sedge, Umbrella",[8]; [16],80
same,Ducksalad plant response rating,ducksalad [9]; [13],80
same,Ducksalad plant response rating,ducksalad [9]; [14],90
same,Ducksalad plant response rating,ducksalad [9]; [15],90
same,"Plant response rating, Ducksalad",ducksalad [9]; [16],100
same,Barnyardgrass plant response rating,barnyardgrass [10]; [13],30
same,Barnyardgrass plant response rating,"barnyardgrass [10]; 125 g ai/ha, scale of 0 to 100, 0 is no effect, 100 is complete control",50
same,Barnyardgrass plant response rating,barnyardgrass [10]; [15],70
same,"Plant response rating, Barnyardgrass",barnyardgrass [10]; [16],80

# Source: patent US20060069132A1, “Azolecarboxamide herbicides” (priority 2004, published 2006)
